From patent US20160257697A1, “THIOPHENE-SUBSTITUTED TETRACYCLIC COMPOUNDS AND METHODS OFUSE THEREOF FOR THE TREATMENT OF VIRAL DISEASES” (priority 2013, published 2016)
Where two headings read alike, the source gives them in different places.

Columns and labels:
Assay in all cases: microbe, parasite or virus in culture
Type in all cases: cell-based, Hepatitis C virus (HCV)
[1] = tested on: HCV replicon 1AQ30D; conditions: Replicon Assay B
[2] = tested on: HCV replicon 1B; conditions: Replicon Assay B
[3] = tested on: HCV replicon 1A; conditions: Replicon Assay A
How it was run: (§1)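 HCV replicon RNA levels were quantified by TaqMan RT-PCR after 3-day compound exposure (0.5% DMSO, 5% FBS). Cyclophilin RNA, co-amplified in the same reaction, served as endogenous control; Ct values were converted to RNA amounts using linear regression standard curves.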

[4] = tested on: HCV replicon 1AY93H; conditions: Replicon Assay A
How it was run: as §1

[5] = tested on: HCV replicon 2B; conditions: Replicon Assay A
How it was run: as §1

[6] = Hepatitis C virus, read-out: 1A Q30D IC50 (nM), replicon 1AQ30D
[7] = Hepatitis C virus, read-out: 1A Y93H IC50 (nM), replicon 1AY93H
[8] = Hepatitis C virus, read-out: 2B IC50 (nM), replicon 2B
[9] = read-out: 1A Q30D IC50, replicon 1AQ30D
[10] = read-out: 1A Y93H IC50, replicon 1AY93H

| SMILES | IC50 [1, 6] | IC50 ([2]; Hepatitis C virus, replicon 1B) | IC50 ([3]; Hepatitis C virus, replicon 1A) | IC50 [4, 7] | IC50 [5, 8] | other results |
| --- | --- | --- | --- | --- | --- | --- |
| COC(=O)N[C@H](C(=O)N1CCC[C@H]1c1ncc(-c2cc(F)c3c(c2)OC(c2ccc(CC(C)(C)OC)s2)n2c-3cc3cc(-c4cnc([C@@H]5CCCN5C(=O)[C@@H](NC(=O)OC)C(C)C)[nH]4)ccc32)[nH]1)C(C)C (single isomer, unassigned) [Compound 844] |  |  |  |  |  | IC50 ([1]; HCV replicon 1A Q30D, read-out: 1A Q30D IC50): 0.239 nM; IC50 ([2]; HCV replicon 1B): 2.6 pM; IC50 ([3]; HCV replicon 1A): 2.2 pM; IC50 ([4]; HCV replicon 1A Y93H, read-out: 1A Y93H IC50): 0.023 nM; IC50 ([5]; HCV replicon 2B, read-out: 2B IC50): 0.213 nM |
| COC(=O)NC(C(=O)N1CCC[C@H]1c1ncc(-c2ccc3c(c2)cc2n3C(c3cc4c(s3)CCC4)Oc3cc(-c4cnc([C@@H]5CCCN5C(=O)[C@@H](NC(=O)OC)C(C)C)[nH]4)cc(C)c3-2)[nH]1)C1CCOC(C)(C)C1 (single isomer, unassigned) [Compound 853] |  |  |  |  |  | IC50 ([1]; Hepatitis C virus, read-out: 1A Q30D IC50, HCV replicon 1A Q30D): 0.705 nM; IC50 ([2]; HCV replicon 1B): 4.2 pM; IC50 ([3]; HCV replicon 1A): > 3.6 pM; IC50 ([4]; read-out: 1A Y93H IC50, HCV replicon 1A Y93H): 0.085 nM; IC50 ([5]; read-out: 2B IC50, HCV replicon 2B): 0.011 nM |
| COC(=O)N[C@H](C(=O)N1CCC[C@H]1c1ncc(-c2ccc3c(c2)OC(c2ccc(C4CC4)s2)n2c-3cc3cc(-c4cnc([C@@H]5CCCN5C(=O)[C@@H](NC(=O)OC)C(C)C)[nH]4)ccc32)[nH]1)C(C)C (some centres unmarked) [Compound 2] | 0.1 nM | 2.4 pM | 2.9 pM | 0.032 nM | 0.033 nM |  |
| CCc1ccc(C2Oc3cc(-c4cnc([C@@H]5CCCN5C(=O)[C@@H](NC(=O)OC)C(C)C)[nH]4)cc(F)c3-c3cc4cc(-c5cnc([C@@H]6CCCN6C(=O)[C@@H](NC(=O)OC)C(C)C)[nH]5)ccc4n32)s1 (some centres unmarked) [Compound 4] | 0.347 nM | 2 pM | 2.2 pM | 0.01 nM | 0.055 nM |  |
| COC(=O)N[C@H](C(=O)N1CCC[C@H]1c1nc(-c2cc(F)c3c(c2)OC(c2ccc(C)s2)n2c-3cc3cc(-c4cnc([C@@H]5CCCN5C(=O)[C@@H](NC(=O)OC)C5CCOCC5)[nH]4)ccc32)c[nH]1)C(C)C (some centres unmarked) [Compound 58] |  | 3.4 pM | 1.4 pM | 0.002 nM | 0.011 nM | IC50 [1, 9]: 0.041 nM |
| COC(=O)N[C@H](C(=O)N1CCC[C@H]1c1nc(-c2cc(F)c3c(c2)OC(c2ccc(C)s2)n2c-3cc3cc(-c4cnc([C@@H]5CCCN5C(=O)[C@@H](NC(=O)OC)C5CCOCC5)[nH]4)ccc32)c[nH]1)C(C)C (some centres unmarked) [Compound 59] |  |  |  |  |  | IC50 [1, 9]: 0.018 nM; IC50 ([2]; replicon 1B): 3.5 pM; IC50 ([3]; replicon 1A): 1.3 pM; IC50 [4, 10]: 0.004 nM; IC50 ([5]; read-out: 2B IC50, replicon 2B): 0.007 nM |
| COC(=O)N[C@H](C(=O)N1CCC[C@@H]1c1cnc(-c2cc(F)c3c(c2)OC(c2ccc(C4(O)CC4)s2)n2c-3cc3cc(-c4ncc([C@@H]5CCCN5C(=O)[C@@H](NC(=O)OC)C(C)C)[nH]4)ccc32)[nH]1)C(C)C (some centres unmarked) [Compound 61] |  |  |  |  |  | IC50 ([1]; replicon 1AQ30D, read-out: 1A Q30D IC50): 0.22 nM; IC50 ([2]; replicon 1B): 1.1 pM; IC50 ([3]; replicon 1A): 1.1 pM; IC50 ([4]; replicon 1AY93H, read-out: 1A Y93H IC50): 0.014 nM; IC50 ([5]; replicon 2B, read-out: 2B IC50): 0.012 nM |
| COC(=O)NC(C(=O)N1[C@@H]2C[C@@H]2C[C@H]1c1ncc(-c2ccc3c(c2)cc2n3C(c3ccc(C4CC4)s3)Oc3cc(-c4cnc([C@@H]5CCCN5C(=O)[C@@H](NC(=O)OC)C(C)C)[nH]4)cc(F)c3-2)[nH]1)C(C)(C)F (some centres unmarked) [Compound 93] | 0.053 nM | 2.5 pM | 3 pM | 0.007 nM | 0.054 nM |  |
| COC(=O)N[C@H](C(=O)N1CCC[C@H]1c1ncc(-c2cc(F)c3c(c2)OC(c2ccc(CC(F)(F)F)s2)n2c-3cc3cc(-c4cnc([C@@H]5CCCN5C(=O)[C@@H](NC(=O)OC)C(C)C)[nH]4)ccc32)[nH]1)C(C)C (some centres unmarked) [Compound 125] | 0.29 nM | 1.3 pM | 2.3 pM | 0.018 nM | 0.089 nM |  |
| COC(=O)N[C@H](C(=O)N1CCC[C@H]1c1ncc(-c2cc(F)c3c(c2)OC(c2ccc(C4CC4)s2)n2c-3cc3cc(-c4cnc([C@@H]5CCCN5C(=O)[C@@H](NC(=O)OC)C5CCOCC5)[nH]4)ccc32)[nH]1)C(C)C (some centres unmarked) [Compound 127] | 0.02 nM | 2.8 pM | 2 pM | 0.002 nM | 0.003 nM |  |
| COC(=O)NC(C(=O)N1CCC[C@H]1c1ncc(-c2ccc3c(c2)cc2n3C(c3cc(C)c(C)s3)Oc3cc(-c4cnc([C@@H]5CCCN5C(=O)[C@@H](NC(=O)OC)C5CCOCC5)[nH]4)cc(F)c3-2)[nH]1)C(C)(C)F (some centres unmarked) [Compound 128] | 0.044 nM | 3.6 pM | 3 pM | 0.03 nM | 0.045 nM |  |
| CCc1ccc(C2Oc3cc(-c4cnc([C@@H]5CCCN5C(=O)[C@@H](NC(=O)OC)C(C)C)[nH]4)cc(F)c3-c3cc4cc(-c5cnc([C@@H]6CCCN6C(=O)[C@H](NC(=O)OC)C6C[C@@H](C)O[C@@H](C)C6)[nH]5)ccc4n32)s1 (some centres unmarked) [Compound 144] | 0.057 nM | 2.1 pM | 3 pM | 0.003 nM | 0.022 nM |  |
| CCc1ccc(C2Oc3cc(-c4cnc([C@@H]5CCCN5C(=O)[C@@H](NC(=O)OC)C(C)C)[nH]4)cc(F)c3-c3cc4cc(-c5cnc([C@@H]6CCCN6C(=O)[C@H](NC(=O)OC)C6COCC(C)(C)C6)[nH]5)ccc4n32)s1 (some centres unmarked) [Compound 150] | 0.094 nM | 1.9 pM | 2.4 pM | 0.004 nM | 0.007 nM |  |
| CCc1ccc(C2Oc3cc(-c4cnc([C@@H]5CCCN5C(=O)[C@@H](NC(=O)OC)C(C)C)[nH]4)cc(F)c3-c3cc4cc(-c5cnc([C@@H]6CCCN6C(=O)[C@H](NC(=O)OC)C6CCOC(C)(C)C6)[nH]5)ccc4n32)s1 (some centres unmarked) [Compound 151] | 0.022 nM | 2.4 pM | 2 pM | 0.003 nM | 0.004 nM |  |
| COC(=O)NC(C(=O)N1CCC[C@H]1c1ncc(-c2cc(F)c3c(c2)OC(c2ccc(C4CC4)s2)n2c-3cc3cc(-c4cnc([C@@H]5CCCN5C(=O)[C@@H](NC(=O)OC)C5CCOCC5)[nH]4)ccc32)[nH]1)C(C)(C)F (some centres unmarked) [Compound 168] | 0.011 nM |  | 1.3 pM |  |  | IC50 ([2]; replicon 1B): 1.5 pM; IC50 [4, 10]: 0.002 nM; IC50 ([5]; read-out: 2B IC50, replicon 2B): 0.002 nM |
| COC(=O)NC(C(=O)N1CCC[C@H]1c1ncc(-c2cc(F)c3c(c2)OC(c2ccc(C4CC4)s2)n2c-3cc3cc(-c4cnc([C@@H]5CCCN5C(=O)[C@@H](NC(=O)OC)C(C)C)[nH]4)ccc32)[nH]1)C1C[C@@H](C)O[C@@H](C)C1 (some centres unmarked) [Compound 188] | 0.02 nM | 1.2 pM | 1.7 pM | 0.002 nM | 0.005 nM |  |
| COC(=O)N[C@H](C(=O)N1CCC[C@H]1c1nc(-c2cc(F)c3c(c2)OC(c2ccc(C4CC4)s2)n2c-3cc3cc(-c4cnc([C@@H]5CCCN5C(=O)[C@@H](NC(=O)OC)C5C[C@@H](C)O[C@@H](C)C5)[nH]4)ccc32)c[nH]1)C(C)C (some centres unmarked) [Compound 190] | 0.013 nM | 1.4 pM | 1.1 pM | 0.002 nM | 0.003 nM |  |
| COC(=O)NC(C(=O)N1CCC[C@H]1c1ncc(-c2ccc3c(c2)cc2n3C(c3ccc(C4CC4)s3)Oc3cc(-c4cnc([C@@H]5CCCN5C(=O)[C@@H](NC(=O)OC)C(C)C)[nH]4)cc(F)c3-2)[nH]1)C1C[C@@H](C)O[C@@H](C)C1 (some centres unmarked) [Compound 208] | 0.043 nM | 3.2 pM | 3.1 pM | 0.008 nM | 0.005 nM |  |
| COC(=O)NC(C(=O)N1CCC[C@H]1c1ncc(-c2ccc3c(c2)cc2n3C(c3ccc(C4CC4)s3)Oc3cc(-c4cnc([C@@H]5CCCN5C(=O)[C@@H](NC(=O)OC)C(C)C)[nH]4)cc(F)c3-2)[nH]1)C1CCOC(C)(C)C1 (some centres unmarked) [Compound 218] | 0.055 nM | 3.1 pM | 2.6 pM | 0.004 nM | 0.004 nM |  |
